Laboratory results taken from patent US20090061513A1, “Cell sorting and cell cultivation methods” (PicoVitro AB, priority 2007, published 2009).

Tested on: doxorubicin resistant sub line RPMI8226Dox40
Test: Single cell seeding and cultivation in microplate with doxorubicin-spiked growth medium (drug resistance screening), resistant cells
Type: cell-based, human
Settings: 6 days of incubation, resistant vs sensitive cells
Procedure: The clean plates and semi-permeable top membranes were autoclaved for 20 min at 121° C. to obtain a sterile cell culture environment. An excess of recommended growth medium was added to the plate, and manually distributed evenly to all wells by an autoclaved hand scraper (VWR) or sterile cell scrapers (Falcon, for one-time use only). Then, automatic single cell seeding into predefined wells of the microplate was carried out using the FACS. A motorized x/y-stage combined with the software CloneCyt Plus (BD Biosciences) was used to control the exact position of every cell sorted in the plate. Selection of the cells to be seeded was performed based on their individual FSC/SSC (forward scatter/side scatter) properties (i.e. size and granularity). The cells were analyzed at a rate of approximately 100 cells/s. A representative set of cells was sought, meaning that all viable cells in the sample were selected for seeding into the plate. The cells were sorted directly from recommended growth medium in concentrations ranging from 10^5-10^6 cells/ml. FACS Clean solution (BD Biosciences) was let through the fluidics of the FACS prior to experiments to obtain sterility. The x/y-stage and the surrounding of the fluidics outlet was cleaned with 70% EtOH. During analysis, sterile 0.25×PBS was used as sheath buffer. […]

`COc1cccc2c1C(=O)c1c(O)c3c(c(O)c1C2=O)C[C@@](O)(C(=O)CO)C[C@@H]3O[C@H]1C[C@H](N)[C@H](O)[C@H](C)O1` [Doxorubicin, doxorubicin] was tested, and the “Proliferation at higher drug concentrations” value was “only resistant cells can proliferate at higher drug concentrations”.
